Source: US4916065A (priority 1988, dated 1990)
≈ marks a conversion by molar mass, not a printed value. Read-outs that look alike come from different tables or passages of the source.

What was measured:
[1] = system: Klebsiella pneumoniae A20680; experiment: Antibacterial MIC, serial agar dilution; type: cell-based; details: aerobic, nutrient agar, kanamycin-resistant
[2] = system: Enterococcus faecalis A9612; experiment: Antibacterial MIC, serial agar dilution; type: cell-based; details: aerobic, nutrient agar
[3] = system: Morganella morganii A9553; experiment: Antibacterial MIC, serial agar dilution; type: cell-based; details: aerobic, nutrient agar
[4] = system: Staphylococcus aureus A15097; experiment: Antibacterial MIC, serial agar dilution; type: cell-based; details: aerobic, nutrient agar, methicillin-resistant
[5] = system: Micrococcus luteus 1001; experiment: Antibacterial MIC, serial agar dilution; type: cell-based; details: aerobic, nutrient agar
[6] = system: Proteus mirabilis A9554; experiment: Antibacterial MIC, serial agar dilution; type: cell-based; details: aerobic, nutrient agar
[7] = system: Klebsiella pneumoniae D11; experiment: Antibacterial MIC, serial agar dilution; type: cell-based; details: aerobic, nutrient agar
[8] = system: Escherichia coli NIHJ; experiment: Antibacterial MIC, serial agar dilution; type: cell-based; details: aerobic, nutrient agar
[9] = system: Escherichia coli Juhl; experiment: Antibacterial MIC, serial agar dilution; type: cell-based; details: aerobic, nutrient agar
[10] = system: Staphylococcus epidermidis D153; experiment: Antibacterial MIC, serial agar dilution; type: cell-based; details: aerobic, nutrient agar
[11] = system: Escherichia coli A20665; experiment: Antibacterial MIC, serial agar dilution; type: cell-based; details: aerobic, nutrient agar, kanamycin-resistant
[12] = system: Staphylococcus aureus 209P; experiment: Antibacterial MIC, serial agar dilution; type: cell-based; details: aerobic, nutrient agar
[13] = system: Escherichia coli A9624; experiment: Antibacterial MIC, serial agar dilution; type: cell-based; details: aerobic, nutrient agar, kanamycin-resistant
[14] = system: Enterobacter cloacae A9659; experiment: Antibacterial MIC, serial agar dilution; type: cell-based; details: aerobic, nutrient agar
[15] = system: Staphylococcus aureus A20234; experiment: Antibacterial MIC, serial agar dilution; type: cell-based; details: aerobic, nutrient agar, kanamycin-resistant
[16] = system: Proteus vulgaris A9436; experiment: Antibacterial MIC, serial agar dilution; type: cell-based; details: aerobic, nutrient agar
[17] = system: Staphylococcus aureus Smith; experiment: Antibacterial MIC, serial agar dilution; type: cell-based; details: aerobic, nutrient agar
[18] = system: Serratia marcescens A20222; experiment: Antibacterial MIC, serial agar dilution; type: cell-based; details: aerobic, nutrient agar
[19] = system: Staphylococcus aureus BX1633; experiment: Antibacterial MIC, serial agar dilution; type: cell-based; details: aerobic, nutrient agar, ampicillin-resistant
[20] = system: Staphylococcus epidermidis A22152; experiment: Antibacterial MIC, serial agar dilution; type: cell-based; details: aerobic, nutrient agar, kanamycin-resistant
[21] = system: Pseudomonas aeruginosa A9930; experiment: Antibacterial MIC, serial agar dilution; type: cell-based; details: aerobic, nutrient agar
[22] = system: Escherichia coli A20341-1; experiment: Antibacterial MIC, serial agar dilution; type: cell-based; details: A203411, aerobic, nutrient agar, ampicillin-resistant
[23] = system: Bacillus subtilis PCI-219; experiment: Antibacterial MIC, serial agar dilution; type: cell-based; details: PCI219, aerobic, nutrient agar
[24] = system: B16-F10; experiment: In vitro cytotoxicity; type: cell-based, murine; details: Mus musculus, 72 hours, neutral red, 540 nm
[25] = system: Canidia albicans IAM4888; experiment: Antifungal MIC, Sabouraud dextrose agar; type: cell-based
[26] = system: Cryptococcus neoformans D49; experiment: Antifungal MIC, Sabouraud dextrose agar; type: cell-based
[27] = system: Trichophyton mentagrophytes #4329; experiment: Antifungal MIC, Sabouraud dextrose agar; type: cell-based
[28] = system: Staphylococcus aureus Smith; type: in vivo, mice; details: single, im; for No. of survivor/tested: 5 days
Protocol: Mice were challenged intraperitoneally with 100 times the lethal dose of the pathogen in a 5% suspension of hog gastric mucin (American laboratory, Omaha, Nebr.). BU-3420T was administered to mice intramuscularly just before the bacterial challenge.

[29] = Solubility; type: physicochemical
[30] = system: P388 leukemia; experiment: Antitumor activity against P388 leukemia (ip); type: in vivo, mice; details: for Body weight change on day 4 / MST (median survival time) / T/C: QD × 3, ip
[31] = system: Protein synthesis in L1210 cells; experiment: Inhibition of macromolecule synthesis in L1210 leukemia; type: cell-based; details: Mus musculus; 3H-leucine, L1210, 15 min + 60 min, 37° C.
[32] = system: aerobic and anaerobic bacteria; type: cell-based
[33] = system: HCT-116; experiment: In vitro cytotoxicity; type: cell-based; details: Homo sapiens, 72 hours, neutral red, 540 nm
[34] = system: Propionibacterium acnes A21933; experiment: Antibacterial MIC, serial agar dilution; type: cell-based; details: Cutibacterium acnes, anaerobic, GAM agar
[35] = system: Trichophyton mentagrophytes D155; experiment: Antifungal MIC, Sabouraud dextrose agar; type: cell-based
[36] = system: Cryptococcus neoformans IAM4514; experiment: Antifungal MIC, Sabouraud dextrose agar; type: cell-based
[37] = system: Moser; experiment: In vitro cytotoxicity; type: cell-based; details: Homo sapiens; 72 hours, neutral red, 540 nm
[38] = system: DNA synthesis in L1210 cells; experiment: Inhibition of macromolecule synthesis in L1210 leukemia; type: cell-based; details: Mus musculus; 3H-thymidine, L1210, 15 min + 60 min, 37° C.
[39] = system: Mucor spinosus IF05317; experiment: Antifungal MIC, Sabouraud dextrose agar; type: cell-based
[40] = system: RNA synthesis in L1210 cells; experiment: Inhibition of macromolecule synthesis in L1210 leukemia; type: cell-based; details: Mus musculus; 14C-uridine, L1210, 15 min + 60 min, 37° C.
[41] = system: P388; experiment: In vitro cytotoxicity; type: cell-based, murine; details: Mus musculus, 72 hours, viable cell count
Protocol: (§1) On the other hand, the cytotoxic activities against P388 and P388/VCR cells were determined by counting the number of viable cells.

[42] = system: P388/VCR; experiment: In vitro cytotoxicity
Protocol: as §1

NC[C@H]1O[C@H](O[C@H]2[C@H](O)[C@@H](O[C@H]3O[C@H](CO)[C@@H](O)[C@H](N)[C@H]3O)[C@H](N)C[C@@H]2N)[C@H](O)[C@@H](O)[C@@H]1O [Kanamycin A, reference compound]
MIC [1]: > 100000 ng/mL | MIC [2]: 25000 ng/mL (≈ 51.6 µM) | MIC [3]: 3100 ng/mL (≈ 6.4 µM) | MIC [4]: 800 ng/mL (≈ 1.65 µM) | MIC [5]: 3100 ng/mL (≈ 6.4 µM) | MIC [6]: 3100 ng/mL (≈ 6.4 µM) | MIC [7]: 400 ng/mL (≈ 0.826 µM) | MIC [8]: 1600 ng/mL (≈ 3.3 µM) | MIC [9]: 6300 ng/mL (≈ 13 µM) | MIC [10]: 400 ng/mL (≈ 0.826 µM) | MIC [11]: > 100000 ng/mL | MIC [12]: 200 ng/mL (≈ 0.413 µM) | MIC [13]: > 100000 ng/mL | MIC [14]: 3100 ng/mL (≈ 6.4 µM) | MIC [15]: 100000 ng/mL (≈ 206 µM) | MIC [16]: 400 ng/mL (≈ 0.826 µM) | MIC [17]: 800 ng/mL (≈ 1.65 µM) | MIC [18]: 6300 ng/mL (≈ 13 µM) | MIC [19]: 800 ng/mL (≈ 1.65 µM) | MIC [20]: 12500 ng/mL (≈ 25.8 µM) | MIC [21]: 25000 ng/mL (≈ 51.6 µM) | MIC [22]: 6300 ng/mL (≈ 13 µM) | MIC [23]: 200 ng/mL (≈ 0.413 µM)

COC1=C(C(=O)O)C(C)C23OC24c2cc(O)c5c(c2NC3C#C/C=C\C#CC14)C(=O)c1c(O)ccc(O)c1C5=O (stereo not drawn) [BU-3420T]
IC50 [24]: 5.2 ng/mL (≈ 0.00967 µM) | MIC [2]: 0.4 ng/mL (≈ 0.000744 µM) | MIC [25]: 12500 ng/mL (≈ 23.3 µM) | MIC [5]: 0.8 ng/mL (≈ 0.00149 µM) | MIC [26]: 12500 ng/mL (≈ 23.3 µM) | MIC [6]: 13 ng/mL (≈ 0.0242 µM) | MIC [27]: 12500 ng/mL (≈ 23.3 µM) | No. of survivor/tested ([28]; 0.01 mg/kg): 0/5 | No. of survivor/tested ([28]; 0.04 mg/kg): 0/5 | ED50 ([28]; Staphylococcus aureus, 120 h, just before challenge, 5 days observation, read-out: PD50 (median protective dose)): 0.13 mg/kg | solubility ([29]; chloroform, ethyl acetate, methanol and ethanol): slightly soluble | solubility ([29]; dimethyl sulfoxide, dimethylformamide and dioxane): soluble | solubility ([29]; water and n-hexane): insoluble | Body weight change on day 4 ([30]; 0.5 mg/kg/day): 0.0 g | MST (median survival time) ([30]; 0.5 mg/kg/day): 13.0 days | T/C ([30]; 0.5 mg/kg/day): 130% | Body weight change on day 4 ([30]; 1.0 mg/kg/day): -0.5 g | MST (median survival time) ([30]; 1.0 mg/kg/day): 13.5 days | T/C ([30]; 1.0 mg/kg/day): 135% | maximum T/C value ([30]; P388, ip, QD × 3): 135% | IC50 [31]: 1500 ng/mL | activity against Gram-negative organisms ([32]; Gram-negative organisms, versus Gram-positive): a little less susceptible | activity against Gram-positive aerobic bacteria ([32]; Gram-positive aerobic bacteria): intensely potent activity | activity against anaerobic Gram-positive and negative bacteria versus clindamycin ([32]; anaerobic bacteria): much more active than clindamycin | activity against certain kanamycin- and clindamycin-resistant bacteria ([32]; kanamycin- and clindamycin-resistant bacteria): susceptible to both compounds | MIC [8]: 50 ng/mL (≈ 0.093 µM) | MIC [9]: 50 ng/mL (≈ 0.093 µM) | MIC [11]: 50 ng/mL (≈ 0.093 µM) | IC50 [33]: 0.42 ng/mL (≈ 0.000781 µM) | MIC [12]: 0.013 ng/mL (≈ 2.42e-05 µM) | MIC [13]: 50 ng/mL (≈ 0.093 µM) | MIC [14]: 50 ng/mL (≈ 0.093 µM) | MIC [34]: 13 ng/mL (≈ 0.0242 µM) | MIC [35]: 12500 ng/mL (≈ 23.3 µM) | MIC [36]: 12500 ng/mL (≈ 23.3 µM) | IC50 [37]: 0.85 ng/mL (≈ 0.00158 µM) | MIC [20]: 0.05 ng/mL (≈ 9.3e-05 µM) | IC50 [38]: 18 ng/mL | MIC [39]: 12500 ng/mL (≈ 23.3 µM) | IC50 [40]: 9200 ng/mL | IC50 [41]: 0.4 ng/mL (≈ 0.000744 µM) | IC50 ([42]; Mus musculus, P388/VCR, 72 h): 0.4 ng/mL (≈ 0.000744 µM) | cytotoxicity against VCR-sensitive versus resistant P388 cells ([42]; P388 versus P388/VCR): same cytotoxicities against both VCR-sensitive and resistant P388 cells

CO[C@@]12[C@H](COC(N)=O)C3=C(C(=O)C(C)=C(N)C3=O)N1C[C@@H]1N[C@@H]12 [Mitomycin C, reference compound]
IC50 [24]: 500 ng/mL (≈ 1.5 µM) | IC50 [31]: > 100000 ng/mL | IC50 [33]: 800 ng/mL (≈ 2.39 µM) | IC50 [37]: 1200 ng/mL (≈ 3.59 µM) | IC50 [38]: 1700 ng/mL | IC50 [40]: > 100000 ng/mL
